# Assay results from patent publication US8940909B2, “Indicator platform” (Biosynth AG, priority 2009, dated 2015).
# What was measured:
# Test in all cases: IO staining of colonies of beta-D-galactosidase positive/negative bacteria (Table IVb)
# Assay type in all cases: cell-based
# [1] = test system: Pseudomonas aeruginosa 168; conditions: Pseudomonas aeruginosa strain 168, b-gal −, 24 h on Nutrient Agar, 150 mg/l indicator, 100 mg/l IPTG; for F: Fluorescence of colonies: footnote 1: blue autofluorescence; for C: Color of colonies: key: −: absent; +/−: weak; +: strong; ++: very strong; for G: Growth of colonies: key: −: absent; +/−: weak; +: strong; ++: very strong
# [2] = test system: Streptococcus agalactiae 195; conditions: Streptococcus agalactiae strain 195, b-gal −; 24 h on Nutrient Agar, 150 mg/l indicator, 100 mg/l IPTG; for C: Color of colonies: key: −: absent; +/−: weak; +: strong; ++: very strong; for F: Fluorescence of colonies: key: −: absent; +/−: weak; +: strong; ++: very strong
# [3] = test system: Enterobacter aerogenes 242; conditions: Enterobacter aerogenes strain 242, b-gal +; 24 h on Nutrient Agar, 150 mg/l indicator, 100 mg/l IPTG; for C: Color of colonies: key: −: absent; +/−: weak; +: strong; ++: very strong; for G: Growth of colonies: key: −: absent; +/−: weak; +: strong; ++: very strong
# Serratia marcescens 40 = conditions: Serratia marcescens strain 40, b-gal +; 24 h on Nutrient Agar, 150 mg/l indicator, 100 mg/l IPTG
# [4] = test system: Klebsiella pneumoniae 164; conditions: Klebsiella pneumoniae strain 164, b-gal +; 24 h on Nutrient Agar, 150 mg/l indicator, 100 mg/l IPTG; for C: Color of colonies: key: −: absent; +/−: weak; +: strong; ++: very strong; for G: Growth of colonies: key: −: absent; +/−: weak; +: strong; ++: very strong
# [5] = test system: Staphylococcus intermedius 31; conditions: Staphylococcus intermedius strain 31, b-gal +; 24 h on Nutrient Agar, 150 mg/l indicator, 100 mg/l IPTG
# Escherichia coli 61 = conditions: Escherichia coli strain 61, b-gal +; 24 h on Nutrient Agar, 150 mg/l indicator, 100 mg/l IPTG
# Enterobacter cloacae 245 = conditions: Enterobacter cloacae strain 245, b-gal +; 24 h on Nutrient Agar, 150 mg/l indicator, 100 mg/l IPTG
# Escherichia coli 270 = conditions: Escherichia coli strain 270, b-gal +; 24 h on Nutrient Agar, 150 mg/l indicator, 100 mg/l IPTG
# [6] = test system: Escherichia coli (O157:H7) 60; conditions: Escherichia coli (O157:H7) strain 60, b-gal +; 24 h on Nutrient Agar, 150 mg/l indicator, 100 mg/l IPTG
# Citrobacter freundii 181 = conditions: Citrobacter freundii strain 181, b-gal +; 24 h on Nutrient Agar, 150 mg/l indicator, 100 mg/l IPTG
# [7] = test system: Yersinia enterocolitica 175; conditions: Yersinia enterocolitica strain 175, b-gal +/−; 24 h on Nutrient Agar, 150 mg/l indicator, 100 mg/l IPTG; for G: Growth of colonies: key: −: absent; +/−: weak; +: strong; ++: very strong
# Salmonella illa 73 = conditions: Salmonella illa strain 73, b-gal +; 24 h on Nutrient Agar, 150 mg/l indicator, 100 mg/l IPTG
# Aeromonas hydrophila 292 = conditions: Aeromonas hydrophila strain 292, b-gal +; 24 h on Nutrient Agar, 150 mg/l indicator, 100 mg/l IPTG
# Salmonella bongori 81 = conditions: Salmonella bongori strain 81, b-gal +; 24 h on Nutrient Agar, 150 mg/l indicator, 100 mg/l IPTG
# Shigella boydii 135 = conditions: Shigella boydii strain 135, b-gal −; 24 h on Nutrient Agar, 150 mg/l indicator, 100 mg/l IPTG
# [8] = test system: Listeria monocytogenes (4b) 290; conditions: Listeria monocytogenes (4b) strain 290, b-gal −; 24 h on Nutrient Agar, 150 mg/l indicator, 100 mg/l IPTG; for C: Color of colonies: key: −: absent; +/−: weak; +: strong; ++: very strong; for F: Fluorescence of colonies: key: −: absent; +/−: weak; +: strong; ++: very strong
# Shigella sonnei 133 = conditions: Shigella sonnei strain 133, b-gal +/−; 24 h on Nutrient Agar, 150 mg/l indicator, 100 mg/l IPTG
# [9] = test system: Salmonella enteritidis 43; conditions: Salmonella enteritidis strain 43, b-gal −; 24 h on Nutrient Agar, 150 mg/l indicator, 100 mg/l IPTG; note: key: −: absent; +/−: weak; +: strong; ++: very strong
# [10] = test system: Staphylococcus saprophyticus 273; conditions: Staphylococcus saprophyticus strain 273, b-gal +; 24 h on Nutrient Agar, 150 mg/l indicator, 100 mg/l IPTG; for G: Growth of colonies: key: −: absent; +/−: weak; +: strong; ++: very strong
# Staphylococcus aureus 2 = conditions: Staphylococcus aureus strain 2, b-gal −, 24 h on Nutrient Agar, 150 mg/l indicator, 100 mg/l IPTG; for C: Color of colonies: footnote 2: S. aureus natural color
# [11] = test system: Shigella dysenteriae Serovar 1 131; conditions: Shigella dysenteriae Serovar 1 strain 131, b-gal +/−; 24 h on Nutrient Agar, 150 mg/l indicator, 100 mg/l IPTG
# Bacillus subtilis 65 = conditions: Bacillus subtilis strain 65, b-gal −; 24 h on Nutrient Agar, 150 mg/l indicator, 100 mg/l IPTG
smiles,measurement,setting,value
"COc1ccc(C(=O)c2ccccc2-n2cc(O[C@@H]3O[C@H](CO)[C@H](O)[C@H](O)[C@H]3O)c3ccccc32)c(OC)c1 [Indicator I25a, 1-[2-(2,4-Dimethoxybenzoyl)phenyl]-1H-indol-3-yl-beta-D-galactopyranoside]",C: Color of colonies,[1],−
same,G: Growth of colonies,[1],+
same,F: Fluorescence of colonies,[1],+^1
same,C: Color of colonies,[2],−
same,F: Fluorescence of colonies,[2],−
same,G: Growth of colonies,[2],+/−
same,C: Color of colonies,[3],+
same,F: Fluorescence of colonies,[3],+
same,G: Growth of colonies,[3],+
same,C: Color of colonies,Serratia marcescens 40,+
same,F: Fluorescence of colonies,Serratia marcescens 40,+/−
same,G: Growth of colonies,Serratia marcescens 40,+
same,C: Color of colonies,[4],+
same,F: Fluorescence of colonies,[4],+
same,G: Growth of colonies,[4],+
same,C: Color of colonies,[5],+/−
same,F: Fluorescence of colonies,[5],+/−
same,G: Growth of colonies,[5],+
same,C: Color of colonies,Escherichia coli 61,++
same,F: Fluorescence of colonies,Escherichia coli 61,++
same,G: Growth of colonies,Escherichia coli 61,+
same,C: Color of colonies,Enterobacter cloacae 245,+
same,F: Fluorescence of colonies,Enterobacter cloacae 245,++
same,G: Growth of colonies,Enterobacter cloacae 245,+
same,C: Color of colonies,Escherichia coli 270,++
same,F: Fluorescence of colonies,Escherichia coli 270,++
same,G: Growth of colonies,Escherichia coli 270,+
same,C: Color of colonies,[6],++
same,F: Fluorescence of colonies,[6],++
same,G: Growth of colonies,[6],+
same,C: Color of colonies,Citrobacter freundii 181,+
same,F: Fluorescence of colonies,Citrobacter freundii 181,+
same,G: Growth of colonies,Citrobacter freundii 181,+
same,C: Color of colonies,[7],−
same,F: Fluorescence of colonies,[7],−
same,G: Growth of colonies,[7],+
same,C: Color of colonies,Salmonella illa 73,−
same,F: Fluorescence of colonies,Salmonella illa 73,−
same,G: Growth of colonies,Salmonella illa 73,+
same,C: Color of colonies,Aeromonas hydrophila 292,+
same,F: Fluorescence of colonies,Aeromonas hydrophila 292,+/−
same,G: Growth of colonies,Aeromonas hydrophila 292,+
same,C: Color of colonies,Salmonella bongori 81,+/−
same,F: Fluorescence of colonies,Salmonella bongori 81,+/−
same,G: Growth of colonies,Salmonella bongori 81,+
same,C: Color of colonies,Shigella boydii 135,−
same,F: Fluorescence of colonies,Shigella boydii 135,−
same,G: Growth of colonies,Shigella boydii 135,+
same,C: Color of colonies,[8],−
same,F: Fluorescence of colonies,[8],−
same,G: Growth of colonies,[8],+/−
same,C: Color of colonies,Shigella sonnei 133,+
same,F: Fluorescence of colonies,Shigella sonnei 133,++
same,G: Growth of colonies,Shigella sonnei 133,+
same,C: Color of colonies,[9],−
same,F: Fluorescence of colonies,[9],−
same,G: Growth of colonies,[9],+
same,C: Color of colonies,[10],+/−
same,F: Fluorescence of colonies,[10],+/−
same,G: Growth of colonies,[10],+
same,F: Fluorescence of colonies,Staphylococcus aureus 2,−
same,G: Growth of colonies,Staphylococcus aureus 2,+
same,C: Color of colonies,Staphylococcus aureus 2,+/−^2
same,C: Color of colonies,[11],−
same,F: Fluorescence of colonies,[11],−
same,G: Growth of colonies,[11],+
same,C: Color of colonies,Bacillus subtilis 65,−
same,F: Fluorescence of colonies,Bacillus subtilis 65,−
same,G: Growth of colonies,Bacillus subtilis 65,+
"CC(=O)c1ccccc1-n1cc(O[C@@H]2O[C@H](CO)[C@H](O)[C@H](O)[C@H]2O)c2ccc(Cl)cc21 [Indicator I16a, 1-(2-Acetylphenyl)-6-chloro-1H-indol-3-yl-beta-D-galactopyranoside]",C: Color of colonies,[1],−
same,G: Growth of colonies,[1],+
same,F: Fluorescence of colonies,[1],+^1
same,C: Color of colonies,[2],−
same,F: Fluorescence of colonies,[2],−
same,G: Growth of colonies,[2],+/−
same,C: Color of colonies,[3],+
same,F: Fluorescence of colonies,[3],+
same,G: Growth of colonies,[3],+
same,C: Color of colonies,Serratia marcescens 40,+
same,F: Fluorescence of colonies,Serratia marcescens 40,+
same,G: Growth of colonies,Serratia marcescens 40,+
same,C: Color of colonies,[4],+
same,F: Fluorescence of colonies,[4],+
same,G: Growth of colonies,[4],+
same,C: Color of colonies,[5],+/−
same,F: Fluorescence of colonies,[5],+/−
same,G: Growth of colonies,[5],+/−
same,C: Color of colonies,Escherichia coli 61,+
same,F: Fluorescence of colonies,Escherichia coli 61,+
same,G: Growth of colonies,Escherichia coli 61,+
same,C: Color of colonies,Enterobacter cloacae 245,+
same,F: Fluorescence of colonies,Enterobacter cloacae 245,+
same,G: Growth of colonies,Enterobacter cloacae 245,+
same,C: Color of colonies,Escherichia coli 270,+
same,F: Fluorescence of colonies,Escherichia coli 270,+
same,G: Growth of colonies,Escherichia coli 270,+
same,C: Color of colonies,[6],+
same,F: Fluorescence of colonies,[6],+
same,G: Growth of colonies,[6],+
same,C: Color of colonies,Citrobacter freundii 181,+
same,F: Fluorescence of colonies,Citrobacter freundii 181,+
same,G: Growth of colonies,Citrobacter freundii 181,+
same,C: Color of colonies,[7],−
same,F: Fluorescence of colonies,[7],−
same,G: Growth of colonies,[7],+
same,C: Color of colonies,Salmonella illa 73,−
same,F: Fluorescence of colonies,Salmonella illa 73,−
same,G: Growth of colonies,Salmonella illa 73,+
same,C: Color of colonies,Aeromonas hydrophila 292,+
same,F: Fluorescence of colonies,Aeromonas hydrophila 292,+
same,G: Growth of colonies,Aeromonas hydrophila 292,+
same,C: Color of colonies,Salmonella bongori 81,+/−
same,F: Fluorescence of colonies,Salmonella bongori 81,+/−
same,G: Growth of colonies,Salmonella bongori 81,+
same,C: Color of colonies,Shigella boydii 135,−
same,F: Fluorescence of colonies,Shigella boydii 135,−
same,G: Growth of colonies,Shigella boydii 135,+
same,C: Color of colonies,[8],−
same,F: Fluorescence of colonies,[8],−
same,G: Growth of colonies,[8],+/−
same,C: Color of colonies,Shigella sonnei 133,+
same,F: Fluorescence of colonies,Shigella sonnei 133,+
same,G: Growth of colonies,Shigella sonnei 133,+
same,C: Color of colonies,[9],−
same,F: Fluorescence of colonies,[9],−
same,G: Growth of colonies,[9],+
same,C: Color of colonies,[10],+
same,F: Fluorescence of colonies,[10],+
same,G: Growth of colonies,[10],+
same,F: Fluorescence of colonies,Staphylococcus aureus 2,−
same,G: Growth of colonies,Staphylococcus aureus 2,+/−
same,C: Color of colonies,Staphylococcus aureus 2,−
same,C: Color of colonies,[11],−
same,F: Fluorescence of colonies,[11],−
same,G: Growth of colonies,[11],+
same,C: Color of colonies,Bacillus subtilis 65,−
same,F: Fluorescence of colonies,Bacillus subtilis 65,−
same,G: Growth of colonies,Bacillus subtilis 65,+
